Laboratory results as given in PMC6121260, “Sulfated Metabolites of Flavonolignans and 2,3-Dehydroflavonolignans: Preparation and Properties” (International Journal of Molecular Sciences, 2018).
Marks after values point to notes of the source that are not given here.

Key:
[1] = DPPH radical scavenging; type: biochemical; conditions: mean ± standard error
Experimental: (§1) N,N-dimethyl-p-phenylenediamine (DMPD) and 2,2′-azino-bis(3-ethylbenzothiazolin-6-sulfonic acid (ABTS) cation radical scavenging and ferric reducing antioxidant power (FRAP) were measured using kits from Bioquochem (Llanera-Asturias, Spain). Antiradical activity by 2,2-diphenyl-1-picrylhydrazyl radical scavenging assay, reducing capacity using Folin–Ciocalteau reagent (FCR), and anti-lipoperoxidant activity using inhibition of lipid peroxidation of rat liver microsomes induced by tert-butyl hydroperoxide were determined as described previously with modifications described in detail in our previous research.

[2] = ABTS+ cation radical scavenging; type: biochemical; conditions: vitamin C equivalents, mean ± standard error
Experimental: as §1

[3] = Folin–Ciocalteu reagent (FCR) reduction; type: biochemical; conditions: Folin–Ciocalteau reagent reduction, gallic acid equivalents, mean ± standard error
Experimental: as §1

[4] = DMPD+ cation radical scavenging; type: biochemical; conditions: vitamin C equivalents, mean ± standard error
Experimental: as §1

[5] = Ferric reducing antioxidant power (FRAP); type: biochemical; conditions: equivalents of Fe^2+, mean ± standard error
Experimental: as §1

[6] = Inhibition of lipoperoxidation (Lpx) induced by tert-butyl hydroperoxide; type: biochemical; conditions: rat liver microsomal membranes, mean ± standard error
Experimental: as §1

[7] = Log p, octan-1-ol / phosphate buffer partition; type: physicochemical; conditions: octan-1-ol / 6.6 mM phosphate buffer pH 7.4, 25 °C
Experimental: The hydrophobicity of the compounds was determined by measuring their partition coefficient P in a mixture of two immiscible phases—octan-1-ol and 6.6 mM phosphate buffer pH 7.4. Stock solutions (0.5 mM) were prepared in octan-1-ol (parent compounds) and in the buffer (sulfated compounds). The stock solutions (150 µL) were mixed with 150 µL of the immiscible phase in microcentrifuge tubes (1.5 mL); shaken for 2 h (750 rpm, 25 °C); and after incubation, the phases were separated. Water phases were diluted 1:1 with the mobile phase (acetonitrile/deionized water/HCO2H, 5:95:0.1; v/v) and analyzed by HPLC using the gradient G3 (see Section 3.1.3). Octan-1-ol phases were evaporated in the stream of air (70 °C), then dissolved in 10 µL of DMSO, and mixed with 90 µL of mobile phase and analyzed by HPLC. The log p values were calculated from the respective peak heights (h) using the formula log p = log(hoctanol/hbuffer). For comparison, log p values were calculated using the Molinspiration property engine v2016.10 (http://www.molinspiration.com, Molinspiration Cheminformatics, Slovensky Grob, Slovakia) (access on 26th October 2017).

[8] = system: NAD(P)/quinone oxidoreductase 1 (NQO1) activity in Hepa1c1c7 cells; test: NQO1 activity in Hepa1c1c7 cells (Nrf2 pathway); type: cell-based, murine; conditions: 48 h; for NQO1 activity, fold versus control: 50 µM
Experimental: The murine hepatoma Hepa1c1c7 cell line (ECACC, Salisbury, UK) was cultured in minimum essential medium α (M0894, Sigma-Aldrich, St. Louis, MO, USA), supplemented with 2.2 g/L NaHCO3 and 10% heat- and charcoal-treated fetal bovine serum (Biochrom, Berlin, Germany), and maintained at 37 °C in a humidified atmosphere containing 5% CO2. For all experiments, cells were seeded onto 96-well plates at 1 × 10^4 cells/well. After 24 h of stabilization, cells were treated for 48 h with 0.1% (v/v) DMSO (negative control), 2.5 µM sulforaphane (positive control; Sigma-Aldrich, St. Louis, MO, USA), or with the tested compounds in fresh culture medium. After the treatment, the activity of NQO1 was determined spectrophotometrically as described previously. Cells were washed with phosphate-buffered saline (PBS) and lysed with 75 µL of digitonin solution (0.8 g/L digitonin, 2 mM EDTA, pH 7.8) by shaking on an orbital shaker for 20 min at room temperature. A part of the cell lysate (20 µL) was used to determine the protein content. The remaining lysate (55 µL) was mixed with 200 µL of 0.5 M Tris-Cl buffer containing 10% (w/v) bovine serum albumin, 1.5% (v/v) Tween-20, 7.5 mM FAD, 150 mM glucose-6-phosphate, 2 U/mL glucose-6-phosphate dehydrogenase (Roche Diagnostics, Mannheim, Germany), 50 mM NADP^+, 25 mM menadione, and 0.7 mM 3-(4,5-dimethylthiazol-2-yl)-2,5-diphenyltetrazolium bromide (MTT). The mixture was incubated for 5 min at room temperature and the reaction was stopped with 50 µL of dicumarol suspension (0.3 mM dicumarol, 5 mM potassium phosphate, 0.5% (v/v) DMSO). The absorbance of the reduced MTT corresponding to the activity of NQO1 was measured at 610 nm on a spectrophotometric plate reader. The absorbance values were normalized to the protein content and used for the calculation of fold changes versus the control.

[9] = molecular target: T1, aryl sulfotransferase from rat liver (AST IV) (Rattus norvegicus, UniProt P17988); test: Substrate specificity of AST IV (whole E. coli cells, p-NPS donor); type: in vitro ADME; design: key: +: isolated sulfated product(s) and/or release of p-nitrophenol (p-NP); –: no formation of p-NP and/or isolated sulfated products; conditions: whole E. coli cells expressing AST IV, 37 °C, 72 h
T1 construct: made in house; host or cells: E. coli BL21 (DE3) Gold (whole cells used as catalyst)
T1 sequence (P17988 whole entry): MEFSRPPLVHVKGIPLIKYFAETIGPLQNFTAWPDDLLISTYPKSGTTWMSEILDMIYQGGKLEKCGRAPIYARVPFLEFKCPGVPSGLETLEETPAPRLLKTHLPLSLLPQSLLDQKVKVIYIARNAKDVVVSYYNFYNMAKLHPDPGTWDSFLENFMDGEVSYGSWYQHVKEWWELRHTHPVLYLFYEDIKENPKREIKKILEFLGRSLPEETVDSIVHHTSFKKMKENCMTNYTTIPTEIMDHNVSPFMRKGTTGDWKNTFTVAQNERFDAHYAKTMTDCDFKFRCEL
Experimental: The plasmid bearing astIV gene was kindly provided by Prof. L. Elling, RWTH Aachen, Germany. The enzyme was expressed in E. coli BL21 (DE3) Gold as described, with modifications reported in our previous work. Whole E. coli cells producing the enzyme, freshly prepared according to the literature, were employed in the biotransformation experiments as a catalyst.
Silybin, silybin A, silybin B, silychristin, and silydianin (separately, each 50 mg, 0.104 mmol) and p-nitrophenyl sulfate (p-NPS, 35 mg, 0.136 mmol; Sigma-Aldrich, St. Louis, MO, USA) were dissolved in 3 mL DMSO, and 2 g (wet based) of whole cells expressing AST IV resuspended in K-phosphate buffer (pH 7.5, 17 mL) were added. The reaction mixture was incubated on a rotary shaker at 37 °C for 24 h. The cells were then removed by centrifugation (30 min, 5000 rpm, 5404 R Eppendorf, Germany), a new portion of fresh cells (2 g in 15 mL, wet based, resuspended in K-phosphate buffer) were added to the supernatant and incubated for 24 h. This step was repeated once more with a total reaction time of 72 h. The reaction was monitored by HPLC and after 72 h, the reaction mixtures, containing the sulfated product(s), were purified by preparative HPLC employing Asahipak GS-310 20F (Shodex, Tokyo, Japan) column with isocratic elution with 100% methanol. The fraction containing the putative sulfated product(s) was evaporated, dissolved in 1 mL of 80% methanol, and loaded onto a Sephadex LH-20 column (15 g dry weight, 12 mm i.d.) packed and eluted with 80% methanol. Only one sulfated product was obtained; silybin B 20-O-sulfate (14.5 mg, 0.03 mmol, yield 25%), whose identity was confirmed by comparison with previously published data.

IC50 [1] [µM] | IC50 [6] [µM] | logP at 2 h [7] | SMILES | ABTS^+ [CE] [2] | FCR [GAE] [3] | DMPD^+ [CE] [4] | FRAP [Fe^2+] [5] | NQO1 activity, fold versus control [8] [fold] | also measured
> 2500 | > 1000 | -1.65 | COc1cc([C@H]2Oc3cc([C@H]4Oc5cc(O)cc(O)c5C(=O)[C@@H]4O)ccc3O[C@@H]2CO)ccc1OS(=O)(=O)O [Silybin A 20-O-sulfate] | 0.02 ± 0.00 CE | 0.08 ± 0.01 GAE | 0.98 ± 0.01 ^n CE | 0.01 ± 0.00 ^p Fe^2+ | 1.2 | FCR [GAE] ([3]; listed as silybin sulfates A): 0.08 GAE
37.1 ± 3.1 | 17.9 ± 0.7 | 1.47 | COc1cc(C2Oc3c(O)cc([C@H]4Oc5cc(O)cc(O)c5C(=O)[C@@H]4O)cc3C2CO)ccc1O (some centres unmarked) [Silychristin, reference compound] | 1.50 ± 0.09 CE | 1.13 ± 0.23 ^m GAE | 1.50 ± 0.02^o CE | 0.64 ± 0.06 Fe^2+ |  | DMPD^+ [CE] ([4]; listed as silychristin): 1.5 CE; Formation of p-NP [9]: + ^a
 |  |  | COc1cc(C2Oc3cc([C@H]4Oc5cc(O)cc(O)c5C(=O)[C@@H]4O)ccc3OC2CO)ccc1O (some centres unmarked) [Silybin A/B, Silybin] |  |  |  |  |  | Formation of p-NP [9]: + ^a
13.3 ± 0.6 | 10.4 ± 0.4 | > 3 | COc1cc(C2Oc3cc(-c4oc5cc(O)cc(O)c5c(=O)c4O)ccc3OC2CO)ccc1O (centres unmarked) [2,3-Dehydrosilybin, reference compound] | 0.77 ± 0.01 ^j CE | 1.51 ± 0.09 ^l GAE | 1.02 ± 0.02 ^n CE | 0.81 ± 0.02 Fe^2+ |  | IC50 ([1]; listed as 2,3-dehydrosilybin): 13 to 14 µM; FCR [GAE] ([3]; listed as 2,3-dehydrosilybin): 1.50 GAE; FRAP [Fe^2+] ([5]; listed as 2,3-dehydrosilybin): 0.81 Fe^2+
106 ± 4 | 90.7 ± 3.3 | < -3 | COc1cc(C2Oc3cc(-c4oc5cc(OS(=O)(=O)O)cc(O)c5c(=O)c4O)ccc3OC2CO)ccc1OS(=O)(=O)O (centres unmarked) [2,3-Dehydrosilybin-7,20-di-O-sulfate] | 0.55 ± 0.03 CE | 0.95 ± 0.01 ^m GAE | 1.90 ± 0.10 CE | 1.61 ± 0.04 Fe^2+ | 1.2 | DMPD^+ [CE] ([4]; listed as 2,3-dehydrosilybin disulfate): 1.90 CE; FRAP [Fe^2+] ([5]; listed as 2,3-dehydrosilybin-7,20-di-O-sulfate): 1.61 Fe^2+
 |  |  | COc1cc([C@@H]2[C@H]3CO[C@@]4(O)C(=O)[C@@H]2C=C([C@H]2Oc5cc(O)cc(O)c5C(=O)[C@@H]2O)[C@@H]34)ccc1O [Silydianin] |  |  |  |  |  | Formation of p-NP [9]: + ^a
 |  |  | C[S+]([O-])CCCCN=C=S (centres unmarked) [sulforaphane, reference compound] |  |  |  |  |  | NQO1 activity, fold increase compared with the control ([8]; 2.5 µM, positive control): 4.3 fold
587 ± 11 | 134 ± 2 | -2.25 | COc1cc(C2Oc3c(O)cc([C@H]4Oc5cc(O)cc(O)c5C(=O)[C@@H]4O)cc3C2CO)ccc1OS(=O)(=O)O (some centres unmarked) [Silychristin-19-O-sulfate] | 0.62 ± 0.03 ^k CE | 0.80 ± 0.11 ^m GAE | 1.56 ± 0.08^o CE | 0.05 ± 0.01 ^q Fe^2+ | 1.3 | 
7.9 ± 0.3 | 12 ± 1.8 | -2.24 | COc1cc(C2Oc3c(O)cc(-c4oc5cc(O)cc(O)c5c(=O)c4O)cc3C2CO)ccc1OS(=O)(=O)O (centres unmarked) [2,3-Dehydro-silychristin-19-O-sulfate, 2,3-Dehydrosilychristin-19-O-sulfate] | 0.62 ± 0.02 ^n CE | 1.44 ± 0.01 ^l GAE | 1.02 ± 0.04 ^n CE | 1.44 ± 0.04 ^r Fe^2+ | 1.4 | IC50 ([1]; listed as 2,3-dehydrosilychristin monosulfate): 8 µM
> 2500 | > 1000 | -2.34 | COc1cc([C@@H]2Oc3cc([C@H]4Oc5cc(O)cc(O)c5C(=O)[C@@H]4O)ccc3O[C@H]2CO)ccc1OS(=O)(=O)O [Silybin B 20-O-sulfate] | 0.04 ± 0.00 CE | 0.16 ± 0.02 GAE | 0.99 ± 0.01 ^n CE | 0.01 ± 0.00 ^p Fe^2+ | 0.9 | FCR [GAE] ([3]; listed as silybin sulfates B): 0.16 GAE
14.1 ± 0.5 | 13.7 ± 0.4 | -2.16 | COc1cc(C2Oc3cc(-c4oc5cc(O)cc(O)c5c(=O)c4O)ccc3OC2CO)ccc1OS(=O)(=O)O (centres unmarked) [2,3-Dehydrosilybin-20-O-sulfate] | 0.71 ± 0.03 ^j CE | 1.03 ± 0.01 ^m GAE | 0.97 ± 0.02 ^n CE | 1.46 ± 0.03 ^r Fe^2+ | 1.3 | 
2.9 ± 0.1 | 32.7 ± 2.4 |  | Cc1c(C)c2c(c(C)c1O)CCC(C)(C(=O)O)O2 (centres unmarked) [Trolox, reference compound] |  | 0.33 ± 0.00 ^k GAE |  |  |  | 
8.6 ± 0.8 | 14.6 ± 0.4 | > 3 | COc1cc(C2Oc3c(O)cc(-c4oc5cc(O)cc(O)c5c(=O)c4O)cc3C2CO)ccc1O (centres unmarked) [2,3-Dehydrosilychristin, reference compound] | 0.93 ± 0.03 ^l CE | 1.58 ± 0.04 ^l GAE | 0.97 ± 0.02 ^n CE | 0.28 ± 0.01 Fe^2+ |  | FCR [GAE] ([3]; listed as 2,3-dehydrosilychristin): 1.58 GAE
